The values that follow come from US8513203B2, “Composition and method thereof” (Indus Biotech Private Limited, priority 2011, dated 2013).

The test deals with FCA induced arthritis. The test is described as follows: FCA induced arthritis, non-injected paw volume. It is filed as in vivo, rat. Particulars: 10 mg/kg. How it is done: Anti-arthritis activity was studied by injecting Freund's complete adjuvant (FCA) in rat paw and measuring the edema formation and percentage inhibition of paw volume in the non-injected paw.
Male wistar rats weighing between 190-250 g were injected with 0.1 ml of FCA into the sub planter region of left hind paw. 0.1 ml of FCA solution consist of 6 mg of Complete Fraction of Mycobacterium Butyrium (Difco) being Suspended in heavy Paraffin Oil (Merck). Local oedema was produced after few hrs. Treatment with the test compound was carried out from day 13 to day 21 after FCA injection. Volume of the non-injected hind paw was recorded using plethysmometer (UGO Basile 7140).
The percentage inhibition of inflammation in the non-injected paw was measured as difference in the mean paw volume of the FCA control group to that of the treated animals.

For `Cc1ccc(-c2cc(C(F)(F)F)nn2-c2ccc(S(N)(=O)=O)cc2)cc1` [Celecoxib], the “Percentage reduction of FCA induced arthritis” value (Day 18) is listed as 58.97 ± 35.93 % and the “Percentage reduction of FCA induced arthritis” value (Day 21) stood at 81.24 ± 22.35 %.
